{
  "source": "paper PMC8251347",
  "about": "“Crystal structure of the ferredoxin reductase component of carbazole 1,9a-dioxygenase from Janthinobacterium sp. J3” (Acta Crystallographica. Section D, Structural Biology, 2021)",
  "target": "T1, CARDO-RJ3 (ferredoxin reductase component of carbazole 1,9a-dioxygenase) (Janthinobacterium sp. J3, UniProt Q84II0)",
  "T1 construct": "gene carAd; full length, 329 residues, N-terminal His tag kept, expressed in E. coli (plasmid pEJ3NAd for the SeMet protein), monomer in solution; contains plant-type [2Fe-2S] cluster",
  "T1 sequence (Q84II0 1-329)": "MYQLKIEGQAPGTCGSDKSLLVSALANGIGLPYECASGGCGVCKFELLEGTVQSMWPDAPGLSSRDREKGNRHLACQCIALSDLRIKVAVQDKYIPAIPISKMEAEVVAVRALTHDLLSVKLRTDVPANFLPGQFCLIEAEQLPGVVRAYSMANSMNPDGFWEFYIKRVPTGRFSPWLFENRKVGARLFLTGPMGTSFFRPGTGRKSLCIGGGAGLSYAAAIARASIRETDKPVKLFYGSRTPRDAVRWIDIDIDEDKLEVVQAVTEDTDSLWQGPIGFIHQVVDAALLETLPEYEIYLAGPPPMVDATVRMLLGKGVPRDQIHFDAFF",
  "assay": "X-ray crystallography, […] A (type I crystal)",
  "conditions": "FAD-binding domain site; Ser151, Tyr165, Lys167, Ser217 hydrogen bonds; Phe135 and Phe328 stacking; [2Fe-2S] cluster present; no NAD(P)H",
  "data": [
    {"molecule": "Cc1cc2nc3c(=O)[nH]c(=O)nc-3n(C[C@H](O)[C@H](O)[C@H](O)COP(=O)(O)OP(=O)(O)OC[C@H]3O[C@@H](n4cnc5c(N)ncnc54)[C@H](O)[C@@H]3O)c2cc1C", "note": "[FAD]", "values": [
      {"measurement": "X-ray crystallography, 2.6 A (type I crystal)", "result": "The type I structure contained the [2Fe-2S] cluster and FAD"}
    ]}
  ]
}
